Like-named read-outs stand apart in the source and are kept apart here.
Legend:
5637 cells [1] = experiment: Annexin V-FITC/PI apoptosis flow cytometry; assay type: cell-based; details: Homo sapiens, 24 h, read-out: Q3-3 (Q3, viable) cells
Experimental: (§1) The potential of cells treated with UA or 5c to undergo dose-dependent apoptosis was explored using quantitative flow cytometric analysis, as shown in Figure 4. Utilizing a kit that detects quantitative binding of Annexin V to externalized phosphatidyl serine during the apoptosis cascade and permeability of Propidium iodide (PI) in cells undergoing cell death, we determined the cells at various stages of cell death following 24h incubation with UA and 5c in various bladder cancer cells.
(§2) We used a fluorescence-based Annexin V binding assay to determine the fraction of the cell population undergoing early and late apoptosis due to the cytotoxicity of the drugs. Cells plated in a 60 mm dish overnight at 0.3 × 10^6 cells/well were incubated with the selected drug at several doses for 24 h. Subsequently, treated cells were labeled with FITC-Annexin V using a kit (eBioscience™ Annexin V Apoptosis Detection Kits; Invitrogen # 88-8005-72, Thermo Fisher Scientific, Seoul, Korea) as per the manufacturer’s instructions. Intact cell suspension labeled with FITC-Annexin V and PI was run on the NovoCyte Quanteon flow cytometer, and data were acquired in list mode. Acquired data were analyzed using NovoExpress software (version 1.6.1). Cells treated with Staurosporine (0.2 µM) act as a positive control.

[2] = tested on: bladder cancer cell lines 5637, HT-1376, T-24, MB-49; experiment: Cell cycle analysis, statements across the tested cell lines; assay type: cell-based; details: for effect on cell cycle distribution: 12 µM, bladder cancer cell lines
Source text: (§3) Cells treated with some antiproliferative drugs are blocked from orderly progression from one stage of their mitotic cycle to the next due to inhibition of a specific stage of the cell cycle. Analysis by flow cytometry (FC) of DNA content in the nuclei of drug-treated cells is a well-established technique for evaluating the fractions of cells in each stage of the cell cycle based on their DNA content. In this study, we employed FC to examine whether treatment with UA or 5c affects the orderly cell cycle progression from G0/G1, S, and G2M before entering Mitosis (M). Figure 6 represents the effect of UA and 5c on cell cycle progression in four bladder cancer cell lines, 5637, HT-1376, T-24, and MB-49, after a […] treatment at a concentration of 12 µM. Following the treatment, nuclei suspensions from treated cells were prepared by direct cell lysis in a hypotonic solution, with simultaneous staining with PI (100 µg/mL). The resulting nuclei suspension and the samples were run on the flow cytometer and analyzed for DNA content.
(§4) Cells cultured in 35 mm diameter, 6-well cluster plates (Corning Inc., Corning, NY, USA) overnight at a density of 0.3 × 10^6 cells/well, and treated with various compounds at selected concentrations for 24 h. After completion of treatment, cells were washed twice with PBS, followed by the addition of Propidium Iodide (PI) containing […] solution [(0.1 mg/mL PI), 50mg Na-citrate, 15 µL of IGEPAL CA-630], 1 mL in each well, and incubated for 30–45 min at 37 °C and 5% CO2. After that data acquired using the NovoCyte Quanteon Flow Cytometer was analyzed using NovoExpress software (version 1.6.1).

MB49 [3] = experiment: Cell cycle phase fractionation by flow cytometry (PI); assay type: cell-based, murine; details: MB49, 24 h, mean ± SD n=3
Source text: as §3, §4

UROtsa = experiment: MTT assay, non-tumorigenic immortalized urothelial cell line; assay type: cell-based, human; details: for IC50: Homo sapiens, MTT, 72 h, non-tumorigenic cells, read-out: IC50 ± SD, UROtsa
Experimental: (§5) The synthesized hybrid conjugates 5a–d were evaluated for their antiproliferative activity against the established human bladder cancer cell lines T24 and 5637. Test compounds were dissolved in ultrapure dimethyl sulfoxide (DMSO), diluted in cell culture media, added to cells cultured in 96-well cluster wells, and incubated for 72 h. The concentration of DMSO in culture media was maintained at < 0.05%. As previously reported, the fraction of viable cells in the culture wells was compared to that in cultures with 0.05% DMSO-only using a colorimetric assay, the Methyl Tetrazolium Bromide (MTT) reduction assay. We determined the selectivity index (SI) of the compounds 5a–d against tumor cells by comparing their cytotoxicity to that of a non-tumorigenic breast epithelial cell line, MCF-12A, as well as a non-tumorigenic, immortalized urothelial cell line, UROtsa (Table 1, and Figure 2).
(§6) The antiproliferative activities of various compounds examined in this report were measured using the MTT (3-[4,5-dimethylthiazol-2-yl]-2,5-diphenyl-tetrazolium bromide) reduction assay, as previously described. Briefly, cells were seeded at 2 × 10^3 cells per well in a 96-well plate and cultured overnight. The cells were then treated with different doses (5 µM, 10 µM, 15 µM, 20 µM, 25 µM, 30 µM, 35 µM, 40 µM in DMSO) for 72 h. Viability of the treated cultures was estimated by conversion of MTT to the insoluble formazan after 3h incubation at 37 °C and 5% CO2. The purple-colored formazan crystals were dissolved in DMSO, and absorbance was recorded at wavelengths 570/640 nm using the Bio-Rad Benchmark Plus Microplate Reader. The percent of viable cells was calculated ODtreated cells/ODcontrol cell wells × 100.

MCF-12A = experiment: MTT assay, non-tumorigenic breast epithelial cell line; assay type: cell-based, human; details: for IC50: Homo sapiens, MCF-12A, MTT, 72 h, non-tumorigenic cells, read-out: IC50 (Mean ± SD), MCF-12A
Experimental: as §5, §6

MB49 cells = experiment: Annexin V-FITC/PI apoptosis flow cytometry; assay type: cell-based, murine; details: Mus musculus, MB49, 24 h
Experimental: as §1, §2

T24 cells = experiment: MTT antiproliferative assay; assay type: cell-based, human; details: for IC50: Homo sapiens, T-24, MTT, 72 h, read-out: IC50 (Mean ± SD), T24; for SI (selectivity index), T24: IC50 MCF-12A / IC50 T24
Experimental: as §5, §6

5637 cells [4] = experiment: MTT antiproliferative assay; assay type: cell-based, human; details: for IC50: Homo sapiens, 72 h, MTT, read-out: IC50 (Mean ± SD), 5637; for SI (selectivity index), 5637: IC50 MCF-12A / IC50 5637
Experimental: as §5, §6

MB49 [5] = experiment: MTT antiproliferative assay; assay type: cell-based, murine; details: for SI (selectivity index), MB49: IC50 UROtsa / IC50 MB49; for IC50: Mus musculus, MB49, MTT, 72 h, read-out: IC50 ± SD, MB49
Experimental: The IC50 values indicate that 5c is effective across multiple bladder cancer cell lines (Figure 2 and Table 2).
as §6

HT-1376 = experiment: Cell cycle phase fractionation by flow cytometry (PI); assay type: cell-based, human; details: HT-1376, 24 h, mean ± SD n=3
Source text: as §3, §4

T24 = experiment: as above; assay type: cell-based, human; details: T24, 24 h, mean ± SD n=3
Source text: as §3, §4

5637 = experiment: as above; assay type: cell-based, human; details: 5637, 24 h, mean ± SD n=3
Source text: as §3, §4

Structure (SMILES) | effect on cell cycle distribution [2] | Cell-Cycle Phase-Fractions G1 (MB49 [3]) | Cell-Cycle Phase-Fractions G2/M (MB49 [3]) | Cell-Cycle Phase-Fractions S (MB49 [3]) | IC50 (UROtsa) | IC50 (MCF-12A) | IC50 (T24 cells) | SI (selectivity index), T24 (T24 cells) | IC50 (5637 cells [4]) | SI (selectivity index), 5637 (5637 cells [4]) | SI (selectivity index), MB49 (MB49 [5]) | IC50 (MB49 [5]) | Cell-Cycle Phase-Fractions G1 (HT-1376) | Cell-Cycle Phase-Fractions G2/M (HT-1376) | Cell-Cycle Phase-Fractions S (HT-1376) | Cell-Cycle Phase-Fractions G1 (T24) | Cell-Cycle Phase-Fractions G2/M (T24) | Cell-Cycle Phase-Fractions S (T24) | Cell-Cycle Phase-Fractions G1 5637 | Cell-Cycle Phase-Fractions G2/M 5637 | other results
CC1CCC2(C(=O)OCCCCOC(=O)CCCCC3SCC4NC(=O)NC43)CCC3(C)C(=CCC4C5(C)CCC(O)C(C)(C)C5CCC43C)C2C1C [Compound 5c, 4-((5-((3aS,4S,6aR)-2-Oxohexahydro-1H-thieno [3,4-d]imidazol-4-yl)pentanoyl)oxy) butyl 3-hydroxy-urs-12-en-28-oate] | G1 phase arrest | 53.52 ± 1.25 % of total | 18.43 ± 0.69 % of total | 28.05 ± 0.56 % of total | 62.9 ± 3.84 µM | 83.11 ± 0.3 µM | 14.2 ± 1.01 µM | 5.85 | 11 ± 0.19 µM | 7.58 | 4.63 | 13.6 ± 0.18 µM | 52.11 ± 0.06 % of total | 16.15 ± 0.71 % of total | 31.73 ± 0.65 % of total | 55.10 ± 0.37 % of total | 15.20 ± 0.02 % of total | 29.70 ± 0.39 % of total | 47.78 ± 0.60 % of total | 16.79 ± 0.73 % of total | viability at 10 µM (5637 cells [1]; 5637, 10 µM): 33%; viability at 15 µM (5637 cells [1]; 5637, 15 µM): 27.9%; increase in the G1-phase population compared with untreated control ([2]; across the tested cell lines): 20–30%; toxicity to non-tumorigenic cells (UROtsa; UROtsa): not toxic; toxicity to non-tumorigenic cells (MCF-12A; MCF12A): not toxic; viability at 10 µM (MB49 cells; MB49, 10 µM, 24 h, read-out: Q4-3 (Q3, viable) cells): 39.4%; viability at 15 µM (MB49 cells; MB49, 15 µM, 24 h, read-out: Q4-3 (Q3, viable) cells): 35.6%; IC50 in µM (selectivity index in parentheses), T-24 (T24 cells; IC50 UROtsa / IC50 T-24): 14.20 ± 1.01 (4.43); Cell-Cycle Phase-Fractions S 5637: 35.42 ± 1.33 % of total
C[C@H]1[C@H](C)CC[C@]2(C(=O)O)CC[C@]3(C)C(=CC[C@@H]4[C@@]5(C)CC[C@H](O)C(C)(C)[C@@H]5CC[C@]43C)[C@H]12 [UA, Ursolic acid] | more modest shift in phase distribution | 59.75 ± 0.77 % of total | 19.12 ± 1.09 % of total | 21.13 ± 1.49 % of total | 67 ± 7.15 µM | 56.4 ± 7.6 µM | 17.5 ± 0.98 µM | 3.21 | 13.4 ± 0.35 µM | 4.19 | 6.26 | 10.7 ± 0.36 µM | 52.40 ± 0.56 % of total | 17.17 ± 1.04 % of total | 30.43 ± 0.48 % of total | 57.76 ± 2.60 % of total | 19.95 ± 1.82 % of total | 22.29 ± 0.77 % of total | 43.52 ± 0.88 % of total | 18.59 ± 2.05 % of total | viability at 10 µM (5637 cells [1]): 69.5%; viability at 15 µM (5637 cells [1]): 64.6%; viability at 10 µM (MB49 cells; read-out: Q4-3 (Q3, viable) cells, MB49, 10 µM, 24 h): 74.4%; viability at 15 µM (MB49 cells; read-out: Q4-3 (Q3, viable) cells, MB49, 15 µM, 24 h): 64.5%; Cell-Cycle Phase-Fractions S 5637: 37.89 ± 1.16 % of total
